Data taken from US20240000750A1, “METHOD FOR PREPARING CRYSTALLINE PARTICLES OF 1-(3-CYANO-1-ISOPROPYL-INDOLE-5-YL)PYRAZOLE-4-CARBOXYLIC ACID, AND PHARMACEUTICAL COMPOSITION COMPRISING SAME” (LG CHEM, LTD., priority 2020, published 2024).

Columns and labels:
Assay type in all cases: physicochemical
[1] = Bulk density and tapped density of crystalline particles (flowability: Carr index, Hausner ratio)
Method: The tapped density and bulk density were analyzed to analyze flowability and cohesiveness. tapped density means the changed volume when the container is tapped after packing the powder, which means that the voids between particles are reduced. In addition, the porosity can be confirmed by checking the changes in bulk density (apparent density) and tapped density. In general, the flowability and cohesiveness of the granular powder were evaluated using Carr index (CI) (Carr, 1965) and Hausner ratio (HR) (Hausner, 1967).
The bulk density and tapped density of crystalline particles prepared according to Preparation Examples, Examples and Comparative Examples were measured. The bulk density is the volume when about 50 g of granular powder is put into the measuring cylinder, and the tapped density is the volume when there is no further change in volume after lightly tapping the measuring cylinder on the floor at a constant height 100 times. The bulk density refers to the volume occupied by a certain mass of powder, which refers to the sum of the volume of the powder and the volume of voids between particles as the total volume.
The flowability and cohesiveness of the granular powder were calculated by the Carr index of Equation (3) and the Hausner ratio of Equation (4) using the bulk density and tapped density measured above according to the method of Jinapong et al (2008). […]

[2] = Particle size distribution of crystalline particles, wet method, laser diffraction particle size analyzer
Method: The volume average particle distribution and particle size distribution of the crystalline particles prepared in Preparation Examples, Examples and Comparative Examples were measured by a wet method using a laser diffraction particle size analyzer.
It can be said that the particle size distribution is better as the values of DV10/DV50 and DV50/DV90 used as indicators are larger. Here, DV10, DV50, and DV90 mean particle diameters of particles corresponding to 10%, 50%, and 90% of the total number of particles, respectively, when the measured particles are arranged in order from smallest to largest in particle size.

[3] = Solubility in organic solvents and water

Row | SMILES | Flowability and cohesiveness (in words) [1] | Particle size distribution (in words) [2] | Solubility [3]
1 | CC(C)n1cc(C#N)c2cc(-n3cc(C(=O)O)cn3)ccc21 [Synthesis Example 1-4, 1-(3-cyano-1-isopropyl-indol-5-yl)pyrazole-4-carboxylic acid] | very good | very good | 
2 | CC(C)n1cc(C#N)c2cc(-n3cc(C(=O)O)cn3)ccc21 [compound of Formula 1, 1-(3-cyano-1-isopropyl-indol-5-yl)pyrazole-4-carboxylic acid] |  |  | very low
